# Test results taken from patent US20150017628A1, “CRYOPRESERVATION OF CELLS IN ABSENCE OF VITRIFICATION INDUCING AGENTS” (UNIVERSITY OF WARWICK, priority 2012, published 2015).
# Key:
# erythrocytes = assay: Cryoprotectant haemocompatibility / cytotoxicity (haemolysis of erythrocytes); format: cell-based, ovine
# Experimental: A 40 μL aliquot of the thawed erythrocyte solution was added to 400 μL PBS and centrifuged (1000×g, 5 min, 4° C.) to remove intact cells. 50 μL of the supernatant was added to 150 μL PBS in a 96-well plate and an absorbance measurement at 450 nm recorded to assess the extent of haemoglobin leakage. 100% haemolysis samples were prepared by osmotic shock through addition of 500 μL H2O to 500 μL erythrocytes suspension and the sample was vortexed vigorously. Control (0% haemolysis) samples were prepared by the addition of 500 μL PBS to 500 μL erythrocytes and left at room temperature (25° C.) for 60 minutes. All measurements were repeated a minimum of 5 times and the reported errors are the coefficient of variation (standard deviation/mean).
# Erythrocytes were prepared as described above. A 500 μL aliquot of erythrocytes was added to 500 μL of the polymer or DMSO in PBS and mixed by inversion. The samples were incubated at 25° C. for 120 minutes before analysis. Haemolysis was measured in the same method as used for cryopreservation studies (above). All measurements were repeated in triplicate.
# Fresh ovine (defibrinated) erythrocytes were prepared in an identical manner as aforementioned. Samples were prepared in triplicate. A 500 μL aliquot of erythrocytes was added to 500 μL 2× final concentration cryoprotectant in PBS and mixed by inversion. The samples were incubated at room temperature for 120 minutes before analysis. […] This is in contrast to some examples that defined toxicity only at levels exceeding 10% haemolysis. Concentrations higher than this were not deemed necessary for assessment.
# [1] = Ice recrystallisation inhibition (IRI) modified splat assay; format: physicochemical; settings: at these concentrations (1-10 mg·mL^-1)
# Experimental: Determination of RI activity was achieved using a modified “splat” assay. A 10 μL droplet of the analyte solution in PBS was expelled at a fixed height of 2 m onto a glass coverslip placed upon a pre-cooled (CO2(s)) aluminium plate. This was immediately transferred onto the pre-cooled microscope stage (−6° C.) and left to anneal for 30 minutes. Photographs of the wafer were taken at both 0 and 30 minutes through crossed polarizers. A large number of the ice crystals (30+) were then measured to find the largest grain size dimension along any axis. The average largest value from 3 individual photographs was calculated to give the mean largest grain size (MLGS). Reported errors are the coefficient of variation (standard deviation/mean) from a minimum of 3 individual data sets. Values are reported as the MLGS relative to that obtained for PBS alone.
# A polynucleated wafer of ice crystals (each ice crystal is <30 μm) was made from phosphate buffered saline (PBS) solutions of the additive being investigated. Following annealing at −6° C. for 30 minutes, the wafers were imaged through crossed polarisers and the size of the crystals measured. In addition to PVA, two common biocompatible polymers were also assessed for IRI activity; dextran and poly(ethylene glycol) (PEG, FIG. 1C), as they are both commonly added to cryopreservative solutions.
SMILES,concentration above which significant haemolysis was observed (erythrocytes; 120 minutes at 25° C.),"concentration above which significant haemolysis was observed (erythrocytes; 120 minutes at room temperature, significant haemolysis >5%)",haemolytic property of common cryoprotectant (erythrocytes; general statement),IRI activity of common vitrification solvents [1]
"C[S+](C)[O-] [DMSO, dimethylsulfoxide]",Above 1.5 w/v %,Above 1.5 wt %,strongly haemolytic,little or no IRI activity
OCC(O)CO [glycerol],,,,little or no IRI activity
